Measurements taken from PMC10992857, “Chemoenzymatic access to enantiopure N-containing furfuryl alcohol from chitin-derived N-acetyl-D-glucosamine” (Bioresources and Bioprocessing, 2021).

Tests used:
[1] = system: T1, ScCR; carbonyl reductase from Streptomyces coelicolor; assay: kinetics of asymmetric ketone reduction; format: biochemical; conditions: co-substrate NADH; full assay conditions in supplement Table S3
T1 construct: pET28a, His-tag purified from E. coli BL21(DE3); NADH-dependent

[2] = system: T2, YueD; carbonyl reductase from Bacillus sp. ECU0013; assay: kinetics of asymmetric ketone reduction; format: biochemical; conditions: co-substrate NADPH; full assay conditions in supplement Table S3
T2 construct: pET28a, His-tag purified from E. coli BL21(DE3); NADPH-dependent
Description: kinetics of asymmetric ketone reduction on YueD; carbonyl reductase from Bacillus sp.

Km [1]: 6.3 mM
Km [2]: 0.5 mM
SMILES: CC(=O)Nc1coc(C(C)=O)c1 [3A5AF, 3-Acetamido-5-acetylfuran]
